Measured values from patent publication US5998376A, “Substance P treatment for immunostimulation” (priority 1998, dated 1999).

What was measured:
[1] = tested on: immune system organs (spleen, lymph nodes and thymus); assay: Organ Weight and Total Cell Recovery, JP-8 exposed mice; format: in vivo, C57B16 mice; set-up: Spleen Weight / Thymus Weight: unit not given here
Method: (§1) At 24 hours after the last exposure, the animals were sacrificed and the effects of exposure on the immune system examined. Immune organs (spleen, thymus, blood, lymph nodes and bone marrow) were recovered and analyzed for effects on organ weight, total cell numbers, immune cell populations (by differentials), and lymphocyte subpopulations (by flow cytometry). Assays were also performed to examine the effects of exposure on immune function. […] Similar effects on immune cell subpopulations were also observed in lymph nodes. In the thymus it appeared that the immature CD4^+ CD8^+ cells were differentially lost due to exposure. […] However, these effects are prevented or ameliorated by treatment of the animals with Substance P.
Organ Weight and Total Cell Recovery: For each of the immune system organs (spleen, lymph nodes and thymus) the wet weight is determined after removal using a microbalance. After processing of the organs into single cell suspensions the cell numbers and viabilities are determined using trypan blue staining. Histochemical differentials are performed at this time. Cell numbers and viabilities are again determined after centrifugation of the cell suspensions through density gradients to obtain mononuclear cells.

[2] = tested on: lymphocyte subpopulations; assay: Flow cytometric analyses (FACS) of immune organs, JP-8 exposed mice; format: in vivo, C57B16 mice
Method: as §1
Flow cytometric analyses (FACS): One- and two-color FACS analyses are performed using a Becton-Dickinson FACStar Plus flow cytometer. Cells are stained with the indicated monoclonal antibodies according to standard procedures (Harris et al., id). Cells alone and cells reacted with conjugated isotype control, irrelevant mAbs are used as controls. Data is presented as the percentage of cells staining positive for each individual mAb.

[3] = JP-8 dose 1000 + SP or antagonist aerosol
[4] = JP-8 dose 0 + SP or antagonist aerosol
[5] = JP-8 dose 0 + antagonist aerosol

Compound: COc1ccccc1CC(=N)N1C[C@@H]2C(=O)CCC(c3ccccc3)(c3ccccc3)[C@@H]2C1 [RP, MRP-67,580, reference compound]
- BM Cell Number [1, 3]: 27
- LN Cell Number [1, 3]: 6.8
- Spleen Cell Number [1, 3]: 37
- Spleen Weight [1, 3]: 0.10
- Thymus Cell Number [1, 3]: 72
- Thymus Weight [1, 3]: 0.03
- BM CD3, cells staining positive [2, 3]: 12%
- BM CD4, cells staining positive [2, 3]: 6%
- BM CD8, cells staining positive [2, 3]: 5%
- BM CD45, cells staining positive [2, 3]: 42%
- BM MAC1, cells staining positive [2, 3]: 10%
- LN CD3, cells staining positive [2, 3]: 96%
- LN CD4, cells staining positive [2, 3]: 41%
- LN CD8, cells staining positive [2, 3]: 29%
- LN CD45, cells staining positive [2, 3]: 18%
- LN MAC1, cells staining positive [2, 3]: 1%
- PBL CD3, cells staining positive [2, 3]: 71%
- PBL CD4, cells staining positive [2, 3]: 18%
- PBL CD8, cells staining positive [2, 3]: 10%
- PBL CD45, cells staining positive [2, 3]: 38%
- PBL MAC1, cells staining positive [2, 3]: 9%
- Spleen CD3, cells staining positive [2, 3]: 47%
- Spleen CD4, cells staining positive [2, 3]: 16%
- Spleen CD8, cells staining positive [2, 3]: 5%
- Spleen CD45, cells staining positive [2, 3]: 39%
- Spleen MAC1, cells staining positive [2, 3]: 1%
- Thymus CD3, cells staining positive [2, 3]: 16%
- Thymus DN, cells staining positive [2, 3]: 10%
- Thymus DP, cells staining positive [2, 3]: 70%
- Thymus SP4, cells staining positive [2, 3]: 12%
- Thymus SP8, cells staining positive [2, 3]: 8%

Compound: COc1ccccc1CN[C@H]1C2CCN(CC2)[C@H]1C(c1ccccc1)c1ccccc1 [CP, CP-96,345, reference compound]
- BM Cell Number [1, 4]: 29
- LN Cell Number [1, 4]: 9.8
- Spleen Cell Number [1, 4]: 16
- Spleen Weight [1, 4]: 0.12
- Thymus Cell Number [1, 4]: 50
- Thymus Weight [1, 4]: 0.12
- BM Cell Number [1, 3]: 22
- LN Cell Number [1, 3]: 7.1
- Spleen Cell Number [1, 3]: 7
- Spleen Weight [1, 3]: 0.16
- Thymus Cell Number [1, 3]: 75
- Thymus Weight [1, 3]: 0.12
- BM CD3, cells staining positive [2, 4]: 16%
- BM CD4, cells staining positive [2, 4]: 9%
- BM CD8, cells staining positive [2, 4]: 7%
- BM CD45, cells staining positive [2, 4]: 27%
- BM MAC1, cells staining positive [2, 4]: 33%
- Spleen CD3, cells staining positive [2, 4]: 32%
- Spleen CD4, cells staining positive [2, 4]: 21%
- Spleen CD8, cells staining positive [2, 4]: 7%
- Spleen CD45, cells staining positive [2, 4]: 24%
- Spleen MAC1, cells staining positive [2, 4]: 3%
- Thymus CD3, cells staining positive [2, 4]: 18%
- Thymus DN, cells staining positive [2, 4]: 13%
- Thymus DP, cells staining positive [2, 4]: 75%
- Thymus SP4, cells staining positive [2, 4]: 12%
- Thymus SP8, cells staining positive [2, 4]: 3%
- LN CD3, cells staining positive [2, 5]: 49%
- LN CD4, cells staining positive [2, 5]: 25%
- LN CD8, cells staining positive [2, 5]: 12%
- LN CD45, cells staining positive [2, 5]: 15%
- LN MAC1, cells staining positive [2, 5]: 1%
- PBL CD3, cells staining positive [2, 5]: 72%
- PBL CD4, cells staining positive [2, 5]: 29%
- PBL CD8, cells staining positive [2, 5]: 13%
- PBL CD45, cells staining positive [2, 5]: 12%
- PBL MAC1, cells staining positive [2, 5]: 7%
- BM CD3, cells staining positive [2, 3]: 14%
- BM CD4, cells staining positive [2, 3]: 7%
- BM CD8, cells staining positive [2, 3]: 3%
- BM CD45, cells staining positive [2, 3]: 41%
- BM MAC1, cells staining positive [2, 3]: 26%
- LN CD3, cells staining positive [2, 3]: 95%
- LN CD4, cells staining positive [2, 3]: 35%
- LN CD8, cells staining positive [2, 3]: 23%
- PBL CD3, cells staining positive [2, 3]: 50%
- PBL CD4, cells staining positive [2, 3]: 20%
- PBL CD8, cells staining positive [2, 3]: 15%
- PBL CD45, cells staining positive [2, 3]: 27%
- PBL MAC1, cells staining positive [2, 3]: 6%
- Spleen CD3, cells staining positive [2, 3]: 34%
- Spleen CD4, cells staining positive [2, 3]: 16%
- Spleen CD8, cells staining positive [2, 3]: 9%
- Spleen CD45, cells staining positive [2, 3]: 26%
- Spleen MAC1, cells staining positive [2, 3]: 11%
- Thymus CD3, cells staining positive [2, 3]: 17%
- Thymus DN, cells staining positive [2, 3]: 12%
- Thymus DP, cells staining positive [2, 3]: 65%
- Thymus SP4, cells staining positive [2, 3]: 17%
- Thymus SP8, cells staining positive [2, 3]: 7%
